Results published in patent US20060258000A1, “Use of steady-state oxygen gradients to modulate animal cell functions” (priority 2003, published 2006).

What was measured:
[1] = system: CYP2B; assay: Zonal induction of CYP2B in hepatocyte bioreactor under oxygen gradient, Western blot
Experimental: Bioreactor cultures were perfused with media and allowed to reach steady state before the addition of inductive agents of glucagon for PEPCK up-regulation or phenobarbitol (PB) and EGF for CYP2B1 induction. […] Media with 0.75 mM PB and 0.16 nM EGF was perfused for 36 h to induced CYB2B expression before cell lysis. Cell lysates were collected at the end of each experiment for electrophoretic analysis.
Primary rat hepatocytes from 6-well plates or chamber slides were lysed and scraped in SDS buffered (10 mM Tris/HCl (ph 7.4), 0.1% SDS). Samples were added to microcentrifuge tubes with 5 μl of PMSF, homogenized with a pestle, and centrifuged at 16,200 g for 5 minutes. Total protein content in the supernatant was determined using the DC protein assay (Bio-Rad, Hercules, Calif.) and used to normalize sample loading. Samples prepared in sample buffer were loaded (10-20 μg/well) for electrophoresis on a 10% polyacrylamide gel.

[2] = system: CYP3A; assay: CYP3A protein induction in static and perfused co-cultures, Western blot
[3] = system: CYP2B; assay: CYP2B protein induction in static and perfused co-cultures, Western blot
Experimental: (§1) Primary rat hepatocytes from 6-well plates or chamber slides were lysed and scraped in SDS buffered (10 mM Tris/HCl (ph 7.4), 0.1% SDS). Samples were added to microcentrifuge tubes with 5 μl of PMSF, homogenized with a pestle, and centrifuged at 16,200 g for 5 minutes. Total protein content in the supernatant was determined using the DC protein assay (Bio-Rad, Hercules, Calif.) and used to normalize sample loading. Samples prepared in sample buffer were loaded (10-20 μg/well) for electrophoresis on a 10% polyacrylamide gel. After overnight transfer on to a PVDF membrane, blots were incubated with a blocking buffered (20 mM Tris-Cl (pH 7.4), 500 mM NaCl, 0.1% Tween 20, and 5% (w/v) milk powder) and washed with buffer without milk powder, incubation for 1 h with primary antibody against rat PEPCK or rat CYP2B (Genset, Woburn, Mass.) was followed by washing and incubation with either anti-sheep (PEPCK) or anti-goat (CYP2B) HRP-conjugated secondary antibody for 45 minutes. After washing, the Pierce SuperSignal chemiluminescence reagent was used for detection. All electrophoresis gels were run with molecular mass markers to verify PEPCK bands (67 kDa) or CYP2B1/2 bands (56 kDa). Optical density measurements were obtained using scanned blot images with 1d gelscan software (Metamorph).

[4] = system: CYP2B
Experimental: as §1

[5] = system: PEPCK; assay: Zonal induction of PEPCK in hepatocyte bioreactor under oxygen gradient, Western blot; format: cell-based, rat
From the text: Hepatocyte Isolation And Culture.
Bioreactor And Flow Circuit.

[6] = cultures perfused with 200 μM PB, 36 hours
[7] = static cultures induced with PB

## CCC1(c2ccccc2)C(=O)NC(=O)NC1=O [PB, phenobarbital]
[1]; 0.75 mM PB with 0.16 nM EGF, 36 h, inlet pO2 76 mmHg, 0.5 mL/min (physiologic gradient)
  CYP2B induction along the chamber: increasing CYP2B induction along the length of the chamber
[1]; PB with EGF, supraphysiologic oxygen gradient, same flow rate
  CYP2B levels from inlet to outlet: did not result in significant differences in CYP2B levels from inlet to outlet
[2]; [6]
  CYP3A expression over controls: Dramatic expression of both CYPs over controls
  CYP3A spatial distribution along bioreactor: increasing expression from inlet to outlet
[2]; [7]
  CYP3A expression: low CYP3A
[3]; [6]
  CYP2B expression over controls: Dramatic expression of both CYPs over controls
  CYP2B spatial distribution along bioreactor: levels were highest in the lower-oxygen outlet regions
[3]; [7]
  CYP2B expression: moderate CYP2B expression

## C[C@@H]1C[C@H]2[C@@H]3CCC4=CC(=O)C=C[C@]4(C)[C@@]3(F)[C@@H](O)C[C@]2(C)[C@@]1(O)C(=O)CO [DEX, dexamethasone]
[4]
  CYP2B induction and localization: high levels which were localized to inlet regions

## glucagon
[5]; 10 nM glucagon 8 h, inlet pO2 76 mmHg, 0.5 mL/min (physiologic gradient)
  PEPCK protein levels in 4 bioreactor regions: maximal PEPCK protein levels at the inlet decreasing to half maximal at the outlet
[5]; 10 nM glucagon, inlet pO2 158 mmHg, 0.5 ml/min (supraphysiologic gradient)
  PEPCK induction distribution: heterogenous induction of PEPCK was abrogated
